Entries after “also recorded” stand apart in the source; their conditions may differ.
Assays:
mouse Casp11 = target: T1, mouse Casp11 (Mus musculus, UniProt P70343); assay: Selectivity against mouse Casp11; type: biochemical; conditions: recombinant caspases
T1 sequence (P70343 81-266 limits assumed): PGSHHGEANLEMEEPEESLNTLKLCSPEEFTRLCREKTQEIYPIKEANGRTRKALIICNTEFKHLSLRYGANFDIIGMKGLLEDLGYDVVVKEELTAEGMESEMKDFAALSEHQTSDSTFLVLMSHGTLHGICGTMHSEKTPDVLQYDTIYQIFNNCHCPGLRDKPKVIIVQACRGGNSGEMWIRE
T1 sequence (P70343 286-373 limits assumed): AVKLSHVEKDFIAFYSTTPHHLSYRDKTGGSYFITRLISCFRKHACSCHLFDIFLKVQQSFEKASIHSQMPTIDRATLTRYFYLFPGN
Protocol: FIG. 14: Selectivity and blood brain permeability of VX-765 and VRT-043198. (a-b) IC50 of VX-765 (a) and VRT-043198 (b) against human Casp1-10. (c-d) IC50 of VX-765 (c) and VRT-043198 (d) against mouse Casp1 and Casp11. (e) Blood brain barrier permeability and presence of VX-765 and VRT-043198 in 3 wild type and 4 J20 mice brain cortex and hippocampus and in plasma. Ratios of brain levels to plasma levels are calculated.

J20 mice [1] = assay: Iba1 microglia immunohistochemistry, treated symptomatic J20 mice brains; type: in vivo, mouse
Excerpt: FIG. 10: VX-765 reverses neuroinflammation in J20 mice. (a) Iba-1 positive microglia immunohistographs in the stratum lacunosum molecular area of the hippocampus and S1 of cortex (Scale bar=50 μm). (b) Stereological quantification of Iba-1^+ microglia for WT+Vehicle (n=6), J20+Vehicle (n=5), and J20+VX-765 (n=4) in the hippocampus from the pyramidal cell layer to the stratum lacunosum molecular layer (F(2,11)=58, p<0.0001) and cortex (F(2,11)=39.95, p<0.0001, ANOVA, Dunnett's post-hoc compared to J20+Vehicle, ***p<0.001). (c) Average percentage distribution of morphological microglial subtypes 1 (black (lowermost) bar), 2 (light grey bar), 3 (dark grey bar) and 4 (black (uppermost) bar). (d) II1-β pg/mg levels measured by ELISA in pre-treated J20 at 5 months of age and in treated WT and J20 8 months of age. (e) Astroglial GFAP^+ immunohistographs.
(§1) To assess AD-like pathology, immunohistochemical analyses were performed to detect amyloid deposition (anti-AβF25276)^5,6, microglial (Iba1) activation^7, astrogliosis (GFAP), synaptophysin protein levels on coronal brain sections. Multiplex MSD ELISA was used to assess Aβ levels and 38,40, and 42 subtypes, and II-1β brain levels. RT-PCR was used to assess levels of human APP^Sw/Ind.

J20 mice [2] = assay: Aβ immunostaining, thioflavin S and ELISA, treated symptomatic J20 mice brains; type: in vivo, mouse
Excerpt: FIG. 11: VX-765 prevents the progression of Aβ in J20 mice. (a) Aβ immunohistographs of the stratum lacunosum molecular layer of the hippocampus and S1 cortex of pre-treated 5-month old J20 (baseline) and 8-month old vehicle- or VX-765-treated WT or J20 mice with anti-F2576 antiserum (Scale bar=50 μm). (b) Quantitative analysis comparing Aβ immunostaining density between J20+Vehicle (n=5) and J20+VX-765 (n=4) mice in the hippocampus from the pyramidal cell layer to the stratum lacunosum molecular layer (p=0.0029) and cortex (p=0.0314, unpaired t test). (c) Quantitative analysis comparing RIPA-soluble Aβ42 over total Aβ (Aβ38+Aβ40+Aβ42) levels in pre-treated 5-month old J20, 8-month old vehicle- or VX-765 treated J20 mice hippocampus (F(2,9)=6.614, p=0.0171, ANOVA, Tukey's post-hoc, * p<0.05). No ELISA signal was obtained from WT mice brains. (d) RIPA-soluble total Aβ measured by ELISA in pg/mg brain tissue. (e,f) Formic acid soluble Aβ42 over total Aβ (Aβ38+Aβ40+Aβ42) (e) and total Aβ (f) levels measured by ELISA in pg/mg brain tissue. Student t-test used to assess difference between J20+vehicle and J20+VX-765. (g,h,i) RIPA-soluble and (j,k,l) formic acid soluble Aβ38, Aβ40, and Aβ42 measured by ELISA in pg/mg brain tissue. (m) APP mRNA and protein levels and (n) insulin degrading enzyme (IDE) and neprilysin mRNA levels (o) in hippocampus and cortex.
FIG. 19: Aβ stained with Thioflavin S or anti-Aβ1-40 F25276 antiserum in mice hippocampi or cortex. (a) Comparison of anti-Aβ immunostaining and thioflavin S stained Aβ in 8 month old vehicle-treated WT and J20 and in VX-765-treated J20 brain hippocampi and cortex (after T3). (b) Anti-Aβ F25276 immunopositive staining in 8 month old vehicle-treated J20, J20/Casp1−/−, and VX-765-treated (T3) mice hippocampi. (c) Higher magnification of Aβ and Iba1 immunopositive deposits in 8 month old vehicle-treated J20, J20/Casp1^−/−, and VX-765-treated (T3) mice hippocampi.
as §1

J20 mice [3] = assay: Synaptophysin immunostaining, preventive treatment of J20 mice; type: in vivo, mouse
Excerpt: FIG. 4: Immunostainings of mice hippocampus at 4 months of age (PREVENTION GROUP) with microglial Iba-1, astrocyte GFAP, and synaptic synaptophysin antibodies.
FIG. 27: Synaptophysin immunopositive staining in the hippocampus of mice brains at different times of washout. All sections were immunostained together and automatically with Dako immunostainer.
We directly tested whether pre-symptomatic inhibition of inflammation in a mouse genetic model of Alzheimer disease can stem the progression of memory and behavioral deficits, and Alzheimer disease-like pathology. The J20 amyloid precursor protein Swedish/Indiana mutant mouse was treated at 2 months of age for a one month period with 50 mg/Kg Caspase-1 inhibitor VX-765 (FIG. 22a).

CCO[C@@H]1OC(=O)C[C@@H]1NC(=O)[C@@H]1CCCN1C(=O)[C@@H](NC(=O)c1ccc(N)c(Cl)c1)C(C)(C)C [VX-765, (S)-1-((S)-2-{[1-(4-amino-3-chloro-phenyl)-methanoyl]-amino}-3,3-dimethyl-butanoyl)-pyrrolidine-2-carboxylic acid ((2R,3S)-2-ethoxy-5-oxo-tetrahydro-furan-3-yl)-amide]
inhibition of mouse Casp1 compared to mouse Casp11 (mouse Casp11): strongly inhibited compared to inflammatory mouse Casp11 | Iba1-positive microglia in hippocampus CA1 (J20 mice [1]; 50 mg/kg, 12 injections, 8 month old J20): normalized; also recorded: reduced to WT levels | number of Iba1+ microglia, pyramidal cell layer to stratum lacunosum molecular layer of CA1 (J20 mice [1]; 50 mg/kg, after Treatment 3, stereological quantification): returned to normal | microglial activation measured morphologically (J20 mice [1]; hippocampus and cortex, vs vehicle-treated J20): more resting, and less activated, microglia | Aβ42 level in cortex (J20 mice [2]; ELISA of RIPA-extracted brain proteins): reduced | formic acid soluble Aβ38, Aβ40, Aβ42 (J20 mice [2]; hippocampal and cortical tissues): less abundant | RIPA soluble Aβ42 (J20 mice [2]; hippocampus): reduced in the hippocampus | formic acid soluble Aβ42 over total Aβ38+40+42 (J20 mice [2]; hippocampus): also reduced | RIPA-soluble Aβ42 over total Aβ38+40+42 (J20 mice [2]; hippocampus and cortex): also reduced | formic acid soluble total Aβ (J20 mice [2]; hippocampus and cortex): strongly decreased | deposited Aβ (thioflavin S, anti-Aβ immunostaining) (J20 mice [2]; hippocampus and cortex, 50 mg/kg, 12 injections, vs vehicle-injected J20, 50 mg/kg): only retained rare amyloid deposits; also recorded: substantially reduced | synaptophysin levels (J20 mice [3]; 4 month old J20 brains): impressive preservation of synaptophysin levels | synaptophysin immunostaining (J20 mice [3]; hippocampus, different times of washout): partly re-established
